The test system of assay [1] is hGYS1 enzyme / glycogen synthesis in HeLa cells. As to the kind of experiment: GYS1 cell based assay (glycogen synthesis, Glucose-glo). Details: species or system human. Particulars: Homo sapiens, 24 h incubation, 20 mM glucose, geometric mean of at least 2 runs. The source says: The GYS1 cell based assay is a bioluminescent assay that quantifies the glucose resulting from glycogen digestion; the quantified glucose is an indirect measure of GYS1 glycogen synthesis. Newly synthesized glycogen is digested using Glucoamylase; the resulting glucose is quantified by using the Glucose-glo assay kit from Promega. Glucose-glo works by coupling glucose oxidation and NADH production with a bioluminescent system that is activated with NADH. Glucose is oxidized by Glucose dehydrogenase and the reaction reduces NAD+ to NADH; NADH activates Reductase which reduces a pro-luciferin Reductase Substrate to luciferin. Luciferin is detected in a luciferase reaction using Ultra-Glo rLuciferase and ATP, and the luminesce produced is proportional to the glucose in the sample. The luminescence is measured as a single point read in a plate reader.
Compounds that inhibit the hGYS1 enzyme and, subsequently, the glycogen synthesis in cells, were tested using assay ready plates (white, clear bottom 384 well plates) in a final DMSO reaction volume of 1% DMSO. Compounds in the assay ready plates were mixed with media with no additives, except for 20 mM glucose prior to cell addition. HeLa cells were starved in media with no additives, except for 1× Glutamax for 24 h. Starved HeLa cells were plated, in a 1:1 ratio to the media in the assay ready plate and incubated for 24 h at 37° C. and 5% C02. Cells were washed in 1×PBS buffer and lysed in lysis buffer containing 50% 1×PBS and 25% 0.3 N HCl of the final volume in the well or reaction volume; cells were incubated with lysis buffer for 10 minutes and quenched with the remaining 25% of the reaction volume that consisted of 450 mM Tris pH 8.0. Lysates were mixed in a 1:1 ratio with Glucoamylase in 100 mM Sodium Acetate buffer, pH 5.3; the mixture was incubated for 1 h at 37° C. The digested lysate was mixed in a 1:1 ratio with Glucose-glo detection mixture as per vendor recommendations (Luciferase detection buffer, Reductase, Reductase substrate, Glucose dehydrogenase, and NAD) in read-out plates (solid white 384-well plates) and incubated for 1 h at RT. The plates were read using a plate reader with luminescence capabilities. Each compound concentration Relative Luminescence Unit (RLU) was averaged and normalized to the average RLU of the positive and negative controls to obtain a percentage inhibition. The normalized data vs. concentration was plotted; to determine the half-maximal concentration (IC50), the Levenberg-Marquardt algorithm was used to fit a Hill equation to the dose response data.
The results are shown in Table 3 below, which reports the IC50 of each compound. Unless otherwise specified, IC50 values are reported as the geometric mean of at least 2 assay runs on separate days. As shown in the table below, the compounds of the present invention are potent inhibitors of human GYS1. Unless otherwise specified, IC50 values are reported as the geometric mean of at least two assay runs on separate days. Each run represents the average of a technical replicate, where each compound was assayed twice in the same plate. A superscript “#” symbol in Table 3 indicates results from a single assay run.

Assay [2] has as its target hGYS1 enzyme (recombinant hGYS1/GN1 protein) (Homo sapiens (Human), UniProt P13807). As to the kind of experiment: GYS1 coupled enzyme assay (PK/LDH). The class given is biochemical. Particulars: hGYS1/GN1 50 nM, UDP-Glucose 0.8 mM, G6P 1 mM; geometric mean of at least 2 runs.

A value given as a limit tells only on which side of the number the result lay.

For orientation: IC50 means the concentration at which inhibition is half-maximal.

hGYS1 enzyme (recombinant hGYS1/GN1 protein), sequence (P13807 whole entry): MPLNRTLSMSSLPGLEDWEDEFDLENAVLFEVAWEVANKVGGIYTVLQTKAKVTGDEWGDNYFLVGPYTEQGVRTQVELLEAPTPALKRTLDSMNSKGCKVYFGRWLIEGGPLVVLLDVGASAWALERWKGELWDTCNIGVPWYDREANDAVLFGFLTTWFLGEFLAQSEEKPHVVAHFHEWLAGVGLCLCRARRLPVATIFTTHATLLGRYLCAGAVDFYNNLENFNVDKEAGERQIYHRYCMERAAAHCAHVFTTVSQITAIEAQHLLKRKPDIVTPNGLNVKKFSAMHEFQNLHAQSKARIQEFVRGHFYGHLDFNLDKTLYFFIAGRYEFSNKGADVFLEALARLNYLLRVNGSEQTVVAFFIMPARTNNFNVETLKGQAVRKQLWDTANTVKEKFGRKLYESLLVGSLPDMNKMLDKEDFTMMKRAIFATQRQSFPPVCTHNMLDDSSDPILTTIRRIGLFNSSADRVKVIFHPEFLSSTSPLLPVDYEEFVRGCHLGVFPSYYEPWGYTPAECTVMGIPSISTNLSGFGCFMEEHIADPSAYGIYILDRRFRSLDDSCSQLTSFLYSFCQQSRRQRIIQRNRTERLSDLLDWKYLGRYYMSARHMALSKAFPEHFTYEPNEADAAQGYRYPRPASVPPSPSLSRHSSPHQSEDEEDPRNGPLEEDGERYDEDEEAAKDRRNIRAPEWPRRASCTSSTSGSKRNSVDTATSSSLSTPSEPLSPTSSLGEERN
hGYS1 enzyme (recombinant hGYS1/GN1 protein), sequence (P46976 whole entry partner): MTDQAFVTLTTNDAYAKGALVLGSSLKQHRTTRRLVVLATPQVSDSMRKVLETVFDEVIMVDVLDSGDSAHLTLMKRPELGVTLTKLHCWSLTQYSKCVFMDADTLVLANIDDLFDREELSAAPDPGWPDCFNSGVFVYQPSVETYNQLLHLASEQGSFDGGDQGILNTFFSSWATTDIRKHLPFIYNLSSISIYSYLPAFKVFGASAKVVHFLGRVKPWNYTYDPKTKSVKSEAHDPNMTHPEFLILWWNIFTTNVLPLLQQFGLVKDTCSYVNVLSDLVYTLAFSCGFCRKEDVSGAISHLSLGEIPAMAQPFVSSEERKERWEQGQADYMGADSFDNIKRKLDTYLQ

On to `CC(C)c1ccc(C(NC(=O)[C@@H]2C[C@@H](F)CN2C(=O)Cc2cnn[nH]2)c2ccccc2)cc1C(F)(F)F` (single isomer, unassigned) [Compound 683, (2S,4R)-4-fluoro-N-[(S) or (R)-phenyl[4-(propan-2-yl)-3-(trifluoromethyl)phenyl]methyl]-1-[2-(1H-1,2,3-triazol-5-yl)acetyl]pyrrolidine-2-carboxamide], for which the IC50 was greater than 30 µM in assay [1] (HeLa, 24 h) and 2.36 µM in assay [2].
For `O=C(N[C@@H](c1ccccc1)c1ccc(C2CC2)c(F)n1)[C@@H]1C[C@@H](F)CN1C(=O)Cn1nccc1C(F)(F)F` [Compound 760, (2S,4R)-N-[(S)-(5-cyclopropyl-6-fluoropyridin-2-yl)(phenyl)methyl]-4-fluoro-1-{2-[5-(trifluoromethyl)-1H-pyrazol-1-yl]acetyl}pyrrolidine-2-carboxamide] the same measures were 0.37 µM and 0.017 µM.
The corresponding values for `COc1nc(CC(=O)N2C[C@H](F)C[C@H]2C(=O)N[C@@H](c2ccccc2)c2ccc(C3CC3)c(F)n2)nn1C` [Compound 743, (2S,4R)-N-[(S)-(5-cyclopropyl-6-fluoropyridin-2-yl)(phenyl)methyl]-4-fluoro-1-[2-(5-methoxy-1-methyl-1H-1,2,4-triazol-3-yl)acetyl]pyrrolidine-2-carboxamide] are 0.48 µM and 0.028 µM.
For `CC1(c2ccc([C@@H](NC(=O)[C@@H]3C[C@@H](F)CN3C(=O)Cc3cnn[nH]3)c3cccnc3)cc2F)CC1` [Compound 559, (2S,4R)-4-fluoro-N-[(R)-[3-fluoro-4-(1-methylcyclopropyl)phenyl](pyridin-3-yl)methyl]-1-[2-(1H-1,2,3-triazol-5-yl)acetyl]pyrrolidine-2-carboxamide] the same measures were greater than 22.1 µM and 1.58 µM.
As to `O=C(N[C@@H](c1ccccc1)c1ccc(C2CC2)c(F)n1)[C@@H]1C[C@@H](F)CN1C(=O)Cc1cnn[nH]1` [Compound 721, (2S,4R)-N-[(S)-(5-cyclopropyl-6-fluoropyridin-2-yl)(phenyl)methyl]-4-fluoro-1-[2-(1H-1,2,3-triazol-5-yl)acetyl]pyrrolidine-2-carboxamide], the IC50 in assay [1] (HeLa, 24 h) stood at 1.09 µM; in assay [2] it was 0.079 µM.
For `CC(C)c1ccc([C@@H](NC(=O)[C@@H]2C[C@@H](F)CN2C(=O)Cn2cnnc2)c2ccccc2)nc1` [Compound 285, (2S,4R)-4-fluoro-N-[(S)-phenyl[5-(propan-2-yl)pyridin-2-yl]methyl]-1-[2-(4H-1,2,4-triazol-4-yl)acetyl]pyrrolidine-2-carboxamide] the same measures were greater than 18.6 µM and 0.149 µM.
The corresponding values for `CCN(CC)c1cnnn1CC(=O)N1C[C@H](F)C[C@H]1C(=O)N[C@@H](c1ccccc1)c1ccc(C(C)C)c(F)n1` [Compound 805, (2S,4R)-1-{2-[5-(diethylamino)-1H-1,2,3-triazol-1-yl]acetyl}-4-fluoro-N-[(S)-[6-fluoro-5-(propan-2-yl)pyridin-2-yl](phenyl)methyl] pyrrolidine-2-carboxamide] are 0.28 µM and 0.012 µM.
For `COC(=O)NCc1cccc([C@H](NC(=O)[C@@H]2C[C@@H](F)CN2C(=O)Cc2cnn[nH]2)c2ccc(C(C)C)c(F)n2)c1` [Compound 638, methyl (3-((S)-((2S,4R)-1-(2-(1H-1,2,3-triazol-5-yl)acetyl)-4-fluoropyrrolidine-2-carboxamido)(6-fluoro-5-isopropylpyridin-2-yl)methyl)benzyl)carbamate], the IC50 in assay [1] was greater than 23.4 µM; in assay [2], 0.399 µM.
Regarding `O=C(NC(c1ccc(F)cc1)c1ccc(C2CC2)c(F)n1)[C@@H]1C[C@@H](F)CN1C(=O)Cn1nnnc1C(F)F` (single isomer, unassigned) [Compound 658, (2S,4R)-N-[(S) or (R)-(5-cyclopropyl-6-fluoropyridin-2-yl)(4-fluorophenyl)methyl]-1-{2-[5-(difluoromethyl)-1H-1,2,3,4-tetrazol-1-yl]acetyl}-4-fluoropyrrolidine-2-carboxamide], the IC50 in assay [1] (HeLa, 24 h) turned out to be 1.66 µM; in assay [2], 0.099 µM.
As for `CN(C)c1cnn(CC(=O)N2C[C@H](F)C[C@H]2C(=O)N[C@H](c2ccccc2)c2ccc(C3CC3)c(F)n2)n1` [Compound 717, (2S,4R)-N-[(R)-(5-cyclopropyl-6-fluoropyridin-2-yl)(phenyl)methyl]-1-{2-[4-(dimethylamino)-2H-1,2,3-triazol-2-yl]acetyl}-4-fluoropyrrolidine-2-carboxamide], the IC50 in assay [1] (HeLa, 24 h) was greater than 25.8 µM; in assay [2], 1.48 µM.
With `Cn1cc(C(F)F)c(CC(=O)N2C[C@H](F)C[C@H]2C(=O)N[C@@H](c2ccccc2)c2ccc(C3CC3)c(F)n2)n1` [Compound 757, (2S,4R)-N-[(S)-(5-cyclopropyl-6-fluoropyridin-2-yl)(phenyl)methyl]-1-{2-[4-(difluoromethyl)-1-methyl-1H-pyrazol-3-yl]acetyl}-4-fluoropyrrolidine-2-carboxamide], the half-maximal inhibitory concentration (IC50) in assay [1] (HeLa, 24 h) worked out at 0.4 µM; in assay [2], 0.029 µM.
For `CC(C)c1ccc([C@@H](NC(=O)[C@@H]2C[C@@H](F)CN2C(=O)Cc2[nH]nnc2N(C)C)c2ccccc2)cc1F` [Compound 775, (2S,4R)-1-{2-[4-(dimethylamino)-1H-1,2,3-triazol-5-yl]acetyl}-4-fluoro-N-[(S)-[3-fluoro-4-(propan-2-yl)phenyl](phenyl)methyl] pyrrolidine-2-carboxamide] the same measures were greater than 17.5 µM and 1.08 µM.
Regarding `CC1(c2ccc([C@@H](NC(=O)[C@@H]3C[C@@H](F)CN3C(=O)Cc3cc4ccccc4[nH]3)c3ccccc3)nc2F)CC1` [Compound 598, (2S,4R)-4-fluoro-N-[(S)-[6-fluoro-5-(1-methylcyclopropyl)pyridin-2-yl](phenyl)methyl]-1-[2-(1H-indol-2-yl)acetyl]pyrrolidine-2-carboxamide], the IC50 was 2.18 µM in assay [1] (HeLa, 24 h) and 0.153 µM in assay [2].
With `CC(C)c1ccc([C@H](NC(=O)[C@@H]2C[C@@H](F)CN2C(=O)Cc2cnn[nH]2)c2cccc(-c3ccn[nH]3)c2)nc1F` [Compound 687, (2S,4R)-1-(2-(1H-1,2,3-triazol-5-yl)acetyl)-N—((R)-(3-(1H-pyrazol-5-yl)phenyl)(6-fluoro-5-isopropylpyridin-2-yl)methyl)-4-fluoropyrrolidine-2-carboxamide], the IC50 in assay [1] (HeLa, 24 h) is greater than 30 µM; in assay [2] it was 3.82 µM.
The corresponding values for `CC(=O)N1C[C@H]2CC[C@H](C(=O)N3C[C@H](F)C[C@H]3C(=O)N[C@@H](c3ccccc3)c3ccc(C(C)C)cc3)[C@H]2C1` [Compound 177, (2S,4R)-1-[(3aS,4S,6aS)-2-acetyl-octahydrocyclopenta[c]pyrrole-4-carbonyl]-4-fluoro-N-[(S)-phenyl[4-(propan-2-yl)phenyl]methyl]pyrrolidine-2-carboxamide] are 2.09 µM and 0.349 µM.
For `CC(C)c1ccc(C(NC(=O)[C@@H]2C[C@@H](F)CN2C(=O)Cc2cnn[nH]2)C2CC2)cc1F` (single isomer, unassigned) [Compound 652, (2S,4R)-N-[(S) or (R)-cyclopropyl[3-fluoro-4-(propan-2-yl)phenyl]methyl]-4-fluoro-1-[2-(1H-1,2,3-triazol-5-yl)acetyl]pyrrolidine-2-carboxamide] the same measures were 21.6 µM and 1.2 µM.

Values taken from patent publication US11814367B2, “Inhibitors of glycogen synthase 1 (GYS1) and methods of use thereof” (Maze Therapeutics, Inc., priority 2021, dated 2023).
